pEC50: −log10 of the molar value.

From US12583839B2, “PD-L1 antagonist compound” (ADLAI NORTYE BIOPHARMA CO., LTD., priority 2019, dated 2026) come the findings set out here.

For the assay, the target named is T1, PD-1/PD-L1 (Homo sapiens, UniProt Q9NZQ7).
T1 construct: 60535 (PD-1/NFAT-Reporter-Jurkat); host or cells: CHO cells expressing PD-L1; Jurkat cells expressing PD-1
Briefly: Detection of biological activity of PD-1/PD-L1 signaling inhibition at the cellular level (NFAT luciferase reporter, PD-1/NFAT-Reporter-Jurkat cells co-cultured with TCR activator/PD-L1-CHO cells). The following applies: PD-1/NFAT-Reporter-Jurkat + TCR activator/PD-L1-CHO co-culture, 6 hours; Atezolizumab as positive control. The class given is cell-based. The text has this: Detection of Biological Activity of PD-1/PD-L1 Signaling Inhibition at the Cellular Level
This detection method is used for evaluating the biological activity of the compounds described in the present invention at the cellular level.
This detection method uses the luciferase reporter gene method to detect the biological activity of the compound on the inhibition of PD-1/PD-L1 signal at the cellular level. PD-1/NFAT—Reporter—Jurkat cells stably express human PD-1 and express the luciferase reporter gene regulated by NFAT elements; TCR activator/PD-L1-CHO cells stably express human PD-L1 and TCR activator elements. When the two cell lines were co-cultured, the binding of PD-1/PD-L1 inhibited the TCR signaling pathway, thereby inhibiting the expression of the downstream NFAT-controlled luciferase reporter gene. When PD-1/PD-L1 antibody or inhibitor is added, this inhibitory effect is reversed and luciferase is expressed, so that the effect of PD-1/PD-L1 inhibitor on luciferase activity can be detected.
PD-1/NFAT—Reporter—Jurkat cell (Cat: 60535) and TCR activator/PD-L1-CHO cell (Cat: 60536) were purchased from BPS Bioscience. Anti-human PD-L1 antibody (Atezolizumab, Cat: A2004) was purchased from Selleck; luciferase reporter gene expression detection kit (ONE-Glo™ Luciferase Assay System, Cat: E6120) was purchased from Promega; multifunction plate reader (SpectraMax i3x) was purchased from Molecular Devices.
The PD-1/NFAT—Reporter—Jurkat cells and TCR activator/PD-L1-CHO cells were cultured according to the routine cell culture protocol.
TCR activator/PD-L1-CHO cells were harvested and seeded into a 96-well culture plate at 35,000 cells/well in a medium volume of 100 μl and incubated overnight at 37° C. The next day, the medium was discarded, compound was added and incubated for 30 minutes, while a solvent control (dimethyl sulfoxide, DMSO, final concentration of 0.1%) and PD-L1 antibody (Atezolizumab, final concentration of about 10 nM) as positive controls were set. PD-1/NFAT-reporter-Jurkat cells were then added. After culturing for 6 hours, the luciferase activity was detected according to the instructions of the luciferase detection reagent.
Using PD-L1 antibody as a positive control, calculate the inhibition rate of PD-1/PD-L1 binding of the test compound (%)=(chemiluminescence value of compound treated wells/average value of chemiluminescence value of solvent control wells−1)/(average value of chemiluminescence value of PD-L1 antibody well/average value of chemiluminescence value of solvent control well−1)×100%.
According to the above detection method, the compounds of the present invention were evaluated for their biological activity at the cellular level, and the activity results are shown in the following table.
(In a reporter assay the amount or activity of a reporter protein is the signal.)

T1 sequence (Q9NZQ7 19-290): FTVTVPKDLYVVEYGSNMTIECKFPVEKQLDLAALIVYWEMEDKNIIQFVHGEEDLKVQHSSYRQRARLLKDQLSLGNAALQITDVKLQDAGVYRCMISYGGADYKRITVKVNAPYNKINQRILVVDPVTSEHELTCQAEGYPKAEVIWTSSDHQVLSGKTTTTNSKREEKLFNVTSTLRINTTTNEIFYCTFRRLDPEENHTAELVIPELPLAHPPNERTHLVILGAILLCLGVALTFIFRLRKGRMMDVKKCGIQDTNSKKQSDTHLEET

One may read the pEC50 as the negative decadic logarithm of the EC50, by convention in mol/L. For the compound `N#Cc1cncc(COc2cc(Cn3ncc4c(-c5cccc(-c6ccc(CN7CC[C@@H](O)C7)cc6)c5Cl)cccc43)c(Cl)cc2CN[C@@H](CO)C(=O)O)c1` [Compound 1], the negative logarithm of the EC50 (pEC50) is 7.08.

Regarding `Cc1c(-c2ccc(CNC[C@@H]3CCC(=O)N3)cc2)cccc1-c1cccc2c1cnn2Cc1cc(OCc2cncc(C#N)c2)c(CN[C@@H](CO)C(=O)O)cc1Cl` [Compound 2], the pEC50 is 7.07.

As for `N#Cc1cncc(COc2cc(Cn3ncc4c(-c5cccc(-c6ccc(CN7CCOCC7)cc6)c5Cl)cccc43)c(Cl)cc2CN[C@@H](CO)C(=O)O)c1` [Compound 3], the pEC50 was 6.40.

Consider `CN(CCO)Cc1ccc(-c2cccc(-c3cccc4c3cnn4Cc3cc(OCc4cncc(C#N)c4)c(CN[C@@H](CO)C(=O)O)cc3Cl)c2Cl)cc1` [Compound 4], for which the pEC50 was 6.69.

Consider `N#Cc1cncc(COc2cc(Cn3ncc4c(-c5cccc(-c6ccc(CNCCO)cc6)c5Cl)cccc43)c(Cl)cc2CN[C@@H](CO)C(=O)O)c1` [Compound 5], for which the pEC50 was 7.24.

Consider `CN(CCO[C@H]1CCOC1)Cc1ccc(-c2cccc(-c3cccc4c3cnn4Cc3cc(OCc4cncc(C#N)c4)c(CN[C@@H](CO)C(=O)O)cc3Cl)c2Cl)cc1` [Compound 6], for which the pEC50 is 6.64.

For `CN1C(=O)CC[C@H]1CNCc1ccc(-c2cccc(-c3cccc4c3cnn4Cc3cc(OCc4cncc(C#N)c4)c(CN[C@@H](CO)C(=O)O)cc3Cl)c2Cl)cc1` [Compound 7], the pEC50 is 6.79.

On to `COc1cc(-c2cccc(-c3cccc4c3cnn4Cc3cc(OCc4cncc(C#N)c4)c(CN[C@@H](CO)C(=O)O)cc3Cl)c2Cl)ccc1CNC[C@@H]1CCC(=O)N1` [Compound 8], for which the pEC50 is 7.51.

Consider `N#Cc1cncc(COc2cc(Cn3ncc4c(-c5cccc(-c6ccc(CNC[C@@H]7CCC(=O)N7)cn6)c5Cl)cccc43)c(Cl)cc2CN[C@@H](CO)C(=O)O)c1` [Compound 9], for which the pEC50 is 6.23.

Take `N#Cc1cncc(COc2cc(Cn3ncc4c(-c5cccc(-c6ccc(CNC[C@@H]7CCC(=O)N7)nc6)c5Cl)cccc43)c(Cl)cc2CN[C@@H](CO)C(=O)O)c1` [Compound 10]: the pEC50 was 7.09.

On to `COc1cc(CNC[C@@H]2CCC(=O)N2)ccc1-c1cccc(-c2cccc3c2cnn3Cc2cc(OCc3cncc(C#N)c3)c(CN[C@@H](CO)C(=O)O)cc2Cl)c1Cl` [Compound 11], for which the pEC50 is 6.95.

As to `N#Cc1cncc(COc2cc(Cn3ncc4c(-c5cccc(-c6ccc(CNC[C@@H]7CCC(=O)N7)cc6)c5F)cccc43)c(Cl)cc2CN[C@@H](CO)C(=O)O)c1` [Compound 12], the pEC50 is 6.59.

For the compound `N#Cc1cncc(COc2cc(Cn3ncc4c(-c5cccc(-c6ccc(CNC[C@@H]7CCC(=O)N7)cc6)c5C#N)cccc43)c(Cl)cc2CN[C@@H](CO)C(=O)O)c1` [Compound 13], the pEC50 was 6.94.

In the case of `N#Cc1cncc(COc2cc(Cn3ncc4c(-c5cccc(-c6ccc(CNC[C@@H]7CCC(=O)N7)cc6)c5)cccc43)c(Cl)cc2CN[C@@H](CO)C(=O)O)c1` [Compound 14], the pEC50 was 6.47.

`N#Cc1cncc(COc2cc(Cn3ncc4c(-c5cccc(-c6ccc(CCN7CC[C@@H](O)C7)cc6)c5Cl)cccc43)c(Cl)cc2CN[C@@H](CO)C(=O)O)c1` [Compound 18]: the pEC50 was 6.25.

Take `N#Cc1cncc(COc2cc(Cn3ncc4c(-c5cccc(-c6ccc(CCCN7CC[C@@H](O)C7)cc6)c5Cl)cccc43)c(Cl)cc2CN[C@@H](CO)C(=O)O)c1` [Compound 19]: the pEC50 was 6.29.

In the case of `N#Cc1cncc(COc2cc(Cn3ncc4c(-c5cccc(-c6ccc(CNC[C@@H]7CCC(=O)N7)cc6)c5Cl)cccc43)c(Cl)cc2CNCC(=O)O)c1` [Compound 22], the pEC50 is 7.05.

Take `CC(C)OC(=O)[C@H](CO)NCc1cc(Cl)c(Cn2ncc3c(-c4cccc(-c5ccc(CNC[C@@H]6CCC(=O)N6)cc5)c4Cl)cccc32)cc1OCc1cncc(C#N)c1` [Compound 23]: the pEC50 is 6.29.

As to `N#Cc1cncc(COc2cc(Cn3ncc4c(-c5cccc(-c6ccc(CNC[C@@H]7CCC(=O)N7)cc6)c5Cl)cccc43)c(Cl)cc2CNCCO)c1` [Compound 24], the pEC50 is 7.27.

On to `N#Cc1cncc(COc2cc(Cn3ncc4c(-c5cccc(-c6ccc(CNC[C@@H]7CCC(=O)N7)cc6)c5Cl)cccc43)c(Cl)cc2CN2CCC[C@H]2C(=O)O)c1` [Compound 25], for which the pEC50 is 6.89.

As to `CN(Cc1cc(Cl)c(Cn2ncc3c(-c4cccc(-c5ccc(CNC[C@@H]6CCC(=O)N6)cc5)c4Cl)cccc32)cc1OCc1cncc(C#N)c1)[C@@H](CO)C(=O)O` [Compound 26], the pEC50 is 7.07.

Consider `N#Cc1cncc(COc2cc(Cn3ncc4c(-c5cccc(-c6ccc(CNC[C@@H]7CCC(=O)N7)cc6)c5Cl)cccc43)c(Cl)cc2CN2CC[C@@H](C(=O)O)C2)c1` [Compound 27], for which the pEC50 was 6.88.

Regarding `COc1cc(-c2cccc(-c3cccc4c3cnn4Cc3cc(OCc4cncc(C#N)c4)c(CN[C@@H](CO)C(=O)OC(C)C)cc3Cl)c2Cl)ccc1CNC[C@@H]1CCC(=O)N1` [Compound 28], the pEC50 is 6.96.

With `COc1nc(-c2cccc(-c3cccc4c3cnn4Cc3cc(OCc4cncc(C#N)c4)c(CNCCO)cc3Cl)c2Cl)ccc1CNC[C@@H]1CCC(=O)N1` [Compound 29], the pEC50 is 7.18.

As to `COc1cc(Cn2ncc3c(-c4cccc(-c5ccc(CNC[C@@H]6CCC(=O)N6)cc5)c4Cl)cccc32)c(Cl)cc1CN[C@@H](CO)C(=O)O` [Compound 30], the pEC50 is 7.09.

For `COc1cc(Cn2ncc3c(-c4cccc(-c5ccc(CNC[C@@H]6CCC(=O)N6)cc5)c4Cl)cccc32)c(Cl)cc1CNC[C@H](O)CC(=O)O` [Compound 31], the pEC50 is 7.09.

With `COc1cc(Cn2ncc3c(-c4cccc(-c5ccc(CNC[C@@H]6CCC(=O)N6)cc5)c4Cl)cccc32)c(Cl)cc1CNCC(=O)O` [Compound 32], the pEC50 was 6.61.

As for `COc1cc(Cn2ncc3c(-c4cccc(-c5ccc(CNC[C@@H]6CCC(=O)N6)cc5)c4Cl)cccc32)c(Cl)cc1CN1CC[C@@H](C(=O)O)C1` [Compound 33], the pEC50 is 6.29.

With `COc1cc(Cn2ncc3c(-c4cccc(-c5ccc(CNC[C@@H]6CCC(=O)N6)cc5)c4Cl)cccc32)c(Cl)cc1CN1CCC[C@@H](C(=O)O)C1` [Compound 35], the pEC50 was 6.07.

Turning to `COc1cc(Cn2ncc3c(-c4cccc(-c5ccc(CNC[C@@H]6CCC(=O)N6)cc5)c4Cl)cccc32)c(Cl)cc1CN1CCC[C@H](C(=O)O)C1` [Compound 36], the pEC50 is 6.34.

As to `COc1cc(Cn2ncc3c(-c4cccc(-c5ccc(CNC[C@@H]6CCC(=O)N6)cc5)c4Cl)cccc32)c(Cl)cc1CN1CCC(C(=O)O)CC1` [Compound 37], the pEC50 was 6.01.

Consider `COc1cc(Cn2ncc3c(-c4cccc(-c5ccc(CNC[C@@H]6CCC(=O)N6)cc5)c4Cl)cccc32)c(Cl)cc1CN1CC(C(=O)O)C1` [Compound 38], for which the pEC50 was 6.09.

For the compound `COc1cc(Cn2ncc3c(-c4cccc(-c5ccc(CNC[C@@H]6CCC(=O)N6)cc5)c4Cl)cccc32)c(Cl)cc1CNCC1CCC(C(=O)O)CC1` (stereo partly shown) [Compound 39], the pEC50 was 6.53.

Consider `COc1cc(Cn2ncc3c(-c4cccc(-c5ccc(CNC[C@@H]6CCC(=O)N6)cc5)c4Cl)cccc32)c(Cl)cc1CNC1CCC(C(=O)O)CC1` (stereo partly shown) [Compound 40], for which the pEC50 is 6.67.

As for `COc1cc(Cn2ncc3c(-c4cccc(-c5ccc(CNC[C@@H]6CCC(=O)N6)cc5)c4Cl)cccc32)c(Cl)cc1CNC1CCC(C(=O)O)CC1` (stereo partly shown) [Compound 41], the negative logarithm of the EC50 (pEC50) is 6.53.

As to `COc1cc(Cn2ncc3c(-c4cccc(-c5ccc(CNC[C@@H]6CCC(=O)N6)cc5)c4Cl)cccc32)c(Cl)cc1CN1C[C@H](O)C[C@H]1C(=O)O` [Compound 42], the pEC50 is 6.46.

Consider `COc1cc(Cn2ncc3c(-c4cccc(-c5ccc(CNC[C@@H]6CCC(=O)N6)cc5)c4Cl)cccc32)c(Cl)cc1CN1CCC[C@H]1C(=O)O` [Compound 43], for which the pEC50 was 6.27.

As for `COc1cc(Cn2ncc3c(-c4cccc(-c5ccc(CNC[C@@H]6CCC(=O)N6)cc5)c4Cl)cccc32)c(Cl)cc1CN(C)CC1CCC(C(=O)O)CC1` (stereo partly shown) [Compound 47], the pEC50 was 6.30.

Consider `COc1cc(Cn2ncc3c(-c4cccc(-c5ccc(CNC[C@@H]6CCC(=O)N6)c(C)c5)c4Cl)cccc32)c(Cl)cc1CN1CC[C@@H](C(=O)O)C1` [Compound 48], for which the pEC50 is 6.18.

With `COc1cc(Cn2ncc3c(-c4cccc(-c5ccc(CNC[C@@H]6CCC(=O)N6)c(Cl)c5)c4Cl)cccc32)c(Cl)cc1CN1CC[C@@H](C(=O)O)C1` [Compound 49], the pEC50 was 6.07.
